Laboratory results published in patent US20040176466A1, “Combination therapy for the treatment of neurological disorders” (priority 2001, published 2004).
“And” between values parts separate entries of the source, which are not always exact repeats. Equal entries are not always repeated. Where two headings read alike, the source gives them in different places.

How the values were obtained:
ADHD = assay: Study of atomoxetine versus placebo in the treatment of ADHD; assay type: in vivo, human
From the text: Inter-individual variability in drug metabolism poses a challenge in predicting dosing, safety, and efficacy of a drug. Pharmacokinetic factors, as well as substantial intersubject pharmacodynamic variability, have been proposed as a factor in cases of therapeutic failure of methylphenidate (DeVane, et al., Journal of Clinical Psychopharmacology, 20(3), 347 (2000)).

[1] = cited from earlier work
[2] = Steady-state pharmacokinetics of atomoxetine alone and coadministered with paroxetine in CYP2D6 extensive metabolizers; assay type: in vivo; conditions: both sexes, human, plasma, oral; for AUC: read-out: AUC0-τ; for Vd/F: read-out: Vz/F
Protocol: The study was conducted at the Lilly Laboratory for Clinical Research in Indianapolis, Ind. The protocol and informed consent documents were approved by the Institutional Review Board of Indiana University—Purdue University at Indianapolis. The study was conducted in accordance with the Declaration of Helsinki. All participants provided informed written consent before enrollment into the study. All volunteers were considered to be healthy on the basis of medical history, electrocardiographic findings, and routine clinical laboratory tests. Volunteers with clinically abnormal results were excluded from the study.
Only CYP2D6 extensive metabolizers, as determined by genotyping and phenotyping analyses, were entered in this study. CYP2D6 genotype was performed by PPGx (Morrisville, N.C.). DNA from whole blood samples were isolated and purified and analyzed for CYP2D6 genotype using a validated PCR ([…]) method. CYP2D6 genotype was evaluated by testing the *3, *4, *5, *6, *7, and *8 poor metabolizer (PM) alleles. If patients were homozygous for any combination of these alleles, a PM genotype was assigned; otherwise, an extensive metabolizer genotype (EM) was assigned. CYP2D6 phenotype was performed using the urine ratio of dextromethorphan/dextrorphan following an oral dose of dextromethorphan. Volunteers with a ratio greater than 0.3 were assigned a PM phenotype, and those with a ratio less than 0.3 were assigned an EM phenotype.
This was a single-blind, sequential study composed of two periods. […] Doses were administered with 240 mL of water.
Pharmacokinetic parameter estimates were calculated with noncompartmental analysis by using WinNonlin Professional Version 2.1 (Pharsight Corp, Mountain View, Calif.). The steady state maximum plasma concentration (Css,max), and the corresponding time of the maximum concentration (Tmax) were observed values. The elimination rate constant (λz) was determined as the slope of the linear regression for the terminal log-linear portion of the concentration-time curve. Terminal half-life (t1/2) was calculated as ln(2)/λz. The area under the plasma concentration time curve (AUC0-τ) over the dosing interval was estimated by the linear trapezoidal method. […] Apparent clearance (CLss/F) and apparent volume of distribution (Vz/F) were calculated as Dose/AUC0-τ and as (CLss/F)/λz, respectively.
Except for Tmax, all parameters were log transformed, and a mixed-effect analysis of variance was performed with subject as a random effect. […] For Tmax, a Wilcoxon sign-rank test was performed. Data from all subjects who received study drug are included in the pharmacokinetic and statistical analyses, except for the Tmax analyses that excluded subjects with measurements for only one treatment. Statistical analyses were performed with SAS Version 6.12 (SAS Institute, Cary, N.C.).

## CNCC[C@@H](Oc1ccccc1C)c1ccccc1 [Atomoxetine, (R)-(−)-N-methyl-3-(2-methylphenoxy)-3-phenylpropylamine]
ADHD; poor metabolizer ADHD patients
  response to atomoxetine treatment: greater response
ADHD; regardless of CYP2D6 status, extensive or poor metabolizer
  efficacy in the treatment of ADHD versus placebo: robustly better than placebo
[1]; majority of patients
  mean half-life: 4.5 ± 1.1 h
[1]; two patients (second class of kinetic disposition)
  half-life: 17.1 h and 21 h
[2]; 20 mg, atomoxetine alone
  half-life: 3.92 h
[2]; 20 mg, atomoxetine alone (Period 1), steady state, mean (range), n = 21
  half-life: 4.03 h
[2]; 20 mg, atomoxetine alone (Period 1), steady state, median (range), n = 21, read-out: Tmax
  Tmax: 1 h
[2]; 20 mg
  AUC: 846 ng·h/mL
  Vd/F: 2.2 L/kg
[2]; after concomitant paroxetine administration
  half-life: 10 h
[2]; atomoxetine with paroxetine (Period 2), steady state, mean (range), n = 14
  half-life: 11 h
[2]; atomoxetine with paroxetine (Period 2), steady state, median (range), n = 14, read-out: Tmax
  Tmax: 1.5 h
[2]; atomoxetine with paroxetine versus atomoxetine alone, read-out: median of the paired difference in Tmax
  Tmax: 0.5 h
[2]
  AUC: 5970 ng·h/mL
  Vd/F: 0.803 L/kg
